Experimental data published in patent publication US20160355530A1, “HEPATITIS C INHIBITORS AND USES THEREOF” (AbbVie Inc., priority 2010, published 2016).
Like-named read-outs stand apart in the source and are kept apart here.

Legend:
[1] = biological target: T1, HCV NS5B polymerase 1a-H77 (Hepatitis C virus genotype 1a, UniProt P27958); assay: biochemical; parameters: species or system HCV genotype 1a; settings: enzyme, strain 1a H77; read-out: HCV Polymerase Strain 1a H77 IC50
T1 construct: six-histidine tag; made in house; host or cells: E. coli
Procedure, shortened: (§1)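 E. coli-expressed NS5B (residues 1-570, His-tagged) transcribed a 2.1 kb HCV 1b negative-strand 3′-end RNA template (5 nM) with 20 μM CTP, 20 μM ATP and 0.284 μM [3H]UTP for 3 h at 30° C. Spermine-precipitated RNA was filter-captured and counted by scintillation; IC50 from nonlinear regression.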

[2] = biological target: T2, HCV NS5B polymerase 1a-H77-C316Y (Hepatitis C virus genotype 1a, UniProt P27958, C2736Y); assay: biochemical; parameters: species or system HCV genotype 1a
T2 construct: six-histidine tag; made in house; host or cells: E. coli
Procedure, shortened: as §1

[3] = system: HCV NS5B polymerase 1a-H77-C316Y; assay: biochemical; parameters: species or system HCV genotype 1a; settings: ratio of enzyme IC50s, 1a H77-C316Y / 1a H77
Procedure, shortened: as §1

[4] = biological target: T3, HCV NS5B polymerase 1b BK strain (Hepatitis C virus genotype 1b, UniProt P26663); assay: HCV NS5B polymerase enzymatic inhibition assay, strain 1b BK; type: biochemical; settings: enzyme, strain 1b BK; read-out: HCV Polymerase Strain 1b BK IC50
T3 construct: six-histidine tag; made in house; host or cells: E. coli
Procedure, shortened: as §1

[5] = system: HCV 1a-H77 subgenomic replicon; assay: microbe, parasite or virus in culture; type: cell-based, HCV genotype 1a; settings: Hepatitis C virus, stable replicon
[6] = system: HCV 1b-BB7 subgenomic replicon; assay: microbe, parasite or virus in culture; type: cell-based, HCV genotype 1b; settings: Hepatitis C virus, stable replicon
[7] = system: chimeric replicon with 2a-J6CF-derived NS5B; assay: microbe, parasite or virus in culture; type: cell-based, HCV genotype 2a; settings: Hepatitis C virus, read-out: 2a chimera 5% FBS EC50
[8] = system: chimeric replicon with genotype 2b NS5B; assay: microbe, parasite or virus in culture; type: cell-based, HCV genotype 2b; settings: Hepatitis C virus, read-out: 2b chimera 5% FBS EC50
[9] = system: chimeric replicon with genotype 3a NS5B; assay: microbe, parasite or virus in culture; type: cell-based, HCV genotype 3a; settings: Hepatitis C virus, read-out: 3a chimera 5% FBS EC50
[10] = system: chimeric replicon with genotype 4a NS5B; assay: microbe, parasite or virus in culture; type: cell-based, HCV genotype 4a; settings: Hepatitis C virus, read-out: 4a chimera 5% FBS EC50
[11] = 5% FBS, absence of human plasma, read-out: Stable Replicon 1a H77 5% FBS EC50
[12] = strain 1a H77, 5% FBS + 40% human plasma, read-out: 1a H77 5% FBS + 40% Human Plasma EC50
[13] = strain 1a H77, 5% FBS, no human plasma, read-out: 1a H77 5% FBS EC50
[14] = strain 1a H77, 5% FBS, read-out: 1a H77 5% FBS EC50
[15] = strain 1b BB7, 5% FBS + 40% human plasma, read-out: 1b BB7 5% FBS + 40% Human Plasma EC50
[16] = strain 1b BB7, 5% FBS, no human plasma, read-out: 1b BB7 5% FBS EC50
[17] = strain 1b BB7, 5% FBS, read-out: 1b BB7 5% FBS EC50

T3 sequence (P26663 2420-2989): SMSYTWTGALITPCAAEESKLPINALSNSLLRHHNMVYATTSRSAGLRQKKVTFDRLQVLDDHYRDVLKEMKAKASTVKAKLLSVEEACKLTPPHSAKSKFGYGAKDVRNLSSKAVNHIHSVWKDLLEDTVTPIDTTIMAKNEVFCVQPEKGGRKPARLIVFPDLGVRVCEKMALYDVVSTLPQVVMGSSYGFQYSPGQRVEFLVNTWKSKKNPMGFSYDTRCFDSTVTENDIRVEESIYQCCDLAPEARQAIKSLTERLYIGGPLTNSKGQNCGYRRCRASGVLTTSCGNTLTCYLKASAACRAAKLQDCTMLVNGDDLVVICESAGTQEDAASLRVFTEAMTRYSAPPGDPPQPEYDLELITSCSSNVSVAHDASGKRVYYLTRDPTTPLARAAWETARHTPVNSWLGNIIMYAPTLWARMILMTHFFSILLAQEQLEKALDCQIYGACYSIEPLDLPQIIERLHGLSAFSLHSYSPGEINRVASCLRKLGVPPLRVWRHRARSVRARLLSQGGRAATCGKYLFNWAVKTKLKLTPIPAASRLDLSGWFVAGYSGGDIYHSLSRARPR
T1 sequence (P27958 2421-2990): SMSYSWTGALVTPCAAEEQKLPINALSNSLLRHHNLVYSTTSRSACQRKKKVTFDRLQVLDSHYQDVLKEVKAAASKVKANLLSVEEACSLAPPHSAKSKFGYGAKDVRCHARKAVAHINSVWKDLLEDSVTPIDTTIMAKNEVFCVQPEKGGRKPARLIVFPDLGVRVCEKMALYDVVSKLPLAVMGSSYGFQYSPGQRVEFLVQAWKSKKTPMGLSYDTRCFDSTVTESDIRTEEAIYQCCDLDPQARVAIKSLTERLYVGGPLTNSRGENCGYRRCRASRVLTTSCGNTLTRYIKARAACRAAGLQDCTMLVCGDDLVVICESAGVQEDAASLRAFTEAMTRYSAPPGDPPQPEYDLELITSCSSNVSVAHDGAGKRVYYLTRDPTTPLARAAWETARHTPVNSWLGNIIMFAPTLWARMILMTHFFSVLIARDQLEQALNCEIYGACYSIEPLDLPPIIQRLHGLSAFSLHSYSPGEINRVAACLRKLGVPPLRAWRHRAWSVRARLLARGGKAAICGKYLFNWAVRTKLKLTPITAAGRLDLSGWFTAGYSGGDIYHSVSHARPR
T2 sequence (P27958 2421-2990 C2736Y): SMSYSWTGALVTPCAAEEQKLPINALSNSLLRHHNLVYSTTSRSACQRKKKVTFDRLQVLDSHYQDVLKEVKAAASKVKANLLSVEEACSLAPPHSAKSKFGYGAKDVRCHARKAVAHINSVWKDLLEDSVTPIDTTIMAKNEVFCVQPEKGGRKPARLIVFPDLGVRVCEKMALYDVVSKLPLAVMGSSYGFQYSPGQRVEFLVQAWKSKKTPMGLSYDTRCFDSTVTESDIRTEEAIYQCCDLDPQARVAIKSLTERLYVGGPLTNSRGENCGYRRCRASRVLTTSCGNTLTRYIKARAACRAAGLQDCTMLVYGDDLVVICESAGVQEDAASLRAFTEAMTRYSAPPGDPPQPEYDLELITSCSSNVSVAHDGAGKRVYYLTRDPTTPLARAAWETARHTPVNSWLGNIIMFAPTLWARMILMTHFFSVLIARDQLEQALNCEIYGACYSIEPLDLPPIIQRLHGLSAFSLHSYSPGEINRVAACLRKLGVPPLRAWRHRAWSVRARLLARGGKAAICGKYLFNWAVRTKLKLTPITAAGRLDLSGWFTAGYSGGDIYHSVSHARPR

## CS(=O)(=O)N(CCC1CCOCC1)c1cc2oc(-c3ccc(F)cc3)c(-c3ncc[nH]3)c2cc1C1CC1 [Example 48, N-[5-cyclopropyl-2-(4-fluorophenyl)-3-(1H-imidazol-2-yl)-1-benzofuran-6-yl]-N-[2-(tetrahydro-2H-pyran-4-yl)ethyl]methanesulfonamide]
[1]
  IC50: 7.7 nM
[2]
  IC50: 74 nM
[3]
  C316Y/1a Fold Resistance: 10 fold
[4]
  IC50: 23 nM
[5]; [11]
  EC50: 11.4 nM
[5]; [12]
  EC50: 147 nM
[5]; [13]
  EC50: 11.4 nM
[5]; [14]
  EC50: 11.4 nM
[6]; [15]
  EC50: 75 nM
[6]; [16]
  EC50: 8.4 nM
[6]; [17]
  EC50: 8.5 nM
[7]
  EC50: 83.7 nM
[8]
  EC50: 69.2 nM
[9]
  EC50: 10 nM
[10]
  EC50: 46.4 nM

## CS(=O)(=O)N(CC1CC1)c1cc2oc(-c3ccc(F)cc3)c(-c3ncc[nH]3)c2cc1C1CC1 [Example 53, N-[5-cyclopropyl-2-(4-fluorophenyl)-3-(1H-imidazol-2-yl)-1-benzofuran-6-yl]-N-(cyclopropylmethyl)methanesulfonamide]
[1]
  IC50: 4.9 nM
[2]
  IC50: 223 nM
[3]
  C316Y/1a Fold Resistance: 46 fold
[4]
  IC50: 245 nM
[5]; [11]
  EC50: 111 nM
[5]; [12]
  EC50: 1010 nM
[5]; [13]
  EC50: 111 nM
[5]; [14]
  EC50: 111 nM
[6]; [15]
  EC50: 224 nM
[6]; [16]
  EC50: 52 nM
[6]; [17]
  EC50: 52 nM
[7]
  EC50: 154 nM
[8]
  EC50: 267 nM
[9]
  EC50: 23 nM
[10]
  EC50: 379 nM

## CC(C)=CCN(c1cc2oc(-c3ccc(F)cc3)c(-c3ncc[nH]3)c2cc1C1CC1)S(C)(=O)=O [Example 54, N-[5-cyclopropyl-2-(4-fluorophenyl)-3-(1H-imidazol-2-yl)-1-benzofuran-6-yl]-N-(3-methylbut-2-en-1-yl)methanesulfonamide]
[1]
  IC50: 4.5 nM
[2]
  IC50: 192 nM
[3]
  C316Y/1a Fold Resistance: 43 fold
[4]
  IC50: 293 nM
[5]; [11]
  EC50: 89 nM
[5]; [12]
  EC50: 935 nM
[5]; [13]
  EC50: 89 nM
[5]; [14]
  EC50: 89 nM
[6]; [15]
  EC50: 734 nM
[6]; [16]
  EC50: 64 nM
[6]; [17]
  EC50: 64 nM
[7]
  EC50: 267 nM
[8]
  EC50: 601 nM
[9]
  EC50: 51 nM
[10]
  EC50: 635 nM

## CS(=O)(=O)N(CC1CC1(F)F)c1cc2oc(-c3ccc(F)cc3)c(-c3ncc[nH]3)c2cc1C1CC1 (stereo not drawn) [Example 55, N-[5-cyclopropyl-2-(4-fluorophenyl)-3-(1H-imidazol-2-yl)-1-benzofuran-6-yl]-N-[(2,2-difluorocyclopropyl)methyl]methanesulfonamide]
[1]
  IC50: 5 nM
[2]
  IC50: 366 nM
[3]
  C316Y/1a Fold Resistance: 73 fold
[4]
  IC50: 28 nM
[5]; [11]
  EC50: 68 nM
[5]; [12]
  EC50: 1020 nM
[5]; [13]
  EC50: 68 nM
[5]; [14]
  EC50: 68 nM
[6]; [15]
  EC50: 363 nM
[6]; [16]
  EC50: 37 nM
[6]; [17]
  EC50: 37 nM
[7]
  EC50: 184 nM
[8]
  EC50: 348 nM
[9]
  EC50: 18 nM
[10]
  EC50: 557 nM

## CCN(c1cc2oc(-c3ccc(F)cc3)c(-c3ncc[nH]3)c2cc1C1CC1)S(C)(=O)=O [Example 56, N-[5-cyclopropyl-2-(4-fluorophenyl)-3-(1H-imidazol-2-yl)-1-benzofuran-6-yl]-N-ethylmethanesulfonamide]
[1]
  IC50: 3.5 nM
[2]
  IC50: 220 nM
[3]
  C316Y/1a Fold Resistance: 64 fold
[4]
  IC50: 17 nM
[5]; [11]
  EC50: 27.8 nM
[5]; [12]
  EC50: 192 nM
[5]; [13]
  EC50: 27.8 nM
[5]; [14]
  EC50: 27.8 nM
[6]; [15]
  EC50: 62 nM
[6]; [16]
  EC50: 12.1 nM
[6]; [17]
  EC50: 12.1 nM
[7]
  EC50: 49.3 nM
[8]
  EC50: 42.6 nM
[9]
  EC50: 9.6 nM
[10]
  EC50: 81.9 nM

## C=CCN(c1cc2oc(-c3ccc(F)cc3)c(-c3ncc[nH]3)c2cc1C1CC1)S(C)(=O)=O [Example 57, N-allyl-N-[5-cyclopropyl-2-(4-fluorophenyl)-3-(1H-imidazol-2-yl)-1-benzofuran-6-yl]methanesulfonamide]
[1]
  IC50: 3 nM
[2]
  IC50: 232 nM
[3]
  C316Y/1a Fold Resistance: 77 fold
[4]
  IC50: 11 nM
[5]; [11]
  EC50: 35.2 nM
[5]; [12]
  EC50: 306 nM
[5]; [13]
  EC50: 35.2 nM
[5]; [14]
  EC50: 35.2 nM
[6]; [15]
  EC50: 69 nM
[6]; [16]
  EC50: 17.7 nM
[6]; [17]
  EC50: 17.7 nM
[7]
  EC50: 51.5 nM
[8]
  EC50: 72.4 nM
[9]
  EC50: 9.1 nM
[10]
  EC50: 138 nM

## CS(=O)(=O)N(CCN1CCOCC1)c1cc2oc(-c3ccc(F)cc3)c(-c3ncc[nH]3)c2cc1C1CC1 [Example 58, N-[5-cyclopropyl-2-(4-fluorophenyl)-3-(1H-imidazol-2-yl)-1-benzofuran-6-yl]-N-[2-(morpholin-4-yl)ethyl]methanesulfonamide]
[1]
  IC50: 7.3 nM
[2]
  IC50: 133 nM
[3]
  C316Y/1a Fold Resistance: 18 fold
[4]
  IC50: 29 nM
[5]; [11]
  EC50: 21.8 nM
[5]; [12]
  EC50: 333 nM
[5]; [13]
  EC50: 21.8 nM
[5]; [14]
  EC50: 21.8 nM
[6]; [15]
  EC50: 193 nM
[6]; [16]
  EC50: 11.9 nM
[6]; [17]
  EC50: 11.9 nM
[7]
  EC50: 78.9 nM
[8]
  EC50: 130 nM
[9]
  EC50: 9.8 nM
[10]
  EC50: 130 nM

## CN(C)CCCN(c1cc2oc(-c3ccc(F)cc3)c(-c3ncc[nH]3)c2cc1C1CC1)S(C)(=O)=O [Example 59, N-[5-cyclopropyl-2-(4-fluorophenyl)-3-(1H-imidazol-2-yl)-1-benzofuran-6-yl]-N-[3-(dimethylamino)propyl]methanesulfonamide]
[1]
  IC50: 13.4 nM
[2]
  IC50: 1500 nM
[3]
  C316Y/1a Fold Resistance: 112 fold
[4]
  IC50: 56 nM
[5]; [11]
  EC50: 85.1 nM
[5]; [12]
  EC50: 159 nM
[5]; [13]
  EC50: 85.1 nM
[5]; [14]
  EC50: 85.1 nM
[6]; [15]
  EC50: 20 nM
[6]; [16]
  EC50: 11.2 nM
[6]; [17]
  EC50: 11.2 nM
[7]
  EC50: 65 nM
[8]
  EC50: 127 nM
[9]
  EC50: 10.3 nM
[10]
  EC50: 424 nM

## CS(=O)(=O)N(CCCN1CCOCC1)c1cc2oc(-c3ccc(F)cc3)c(-c3ncc[nH]3)c2cc1C1CC1 [Example 60, N-[5-cyclopropyl-2-(4-fluorophenyl)-3-(1H-imidazol-2-yl)-1-benzofuran-6-yl]-N-[3-(morpholin-4-yl)propyl]methanesulfonamide]
[1]
  IC50: 11.2 nM
[2]
  IC50: 191 nM
[3]
  C316Y/1a Fold Resistance: 17 fold
[4]
  IC50: 20 nM
[5]; [11]
  EC50: 20 nM
[5]; [12]
  EC50: 152 nM
[5]; [13]
  EC50: 20 nM
[5]; [14]
  EC50: 20 nM
[6]; [15]
  EC50: 99.5 nM
[6]; [16]
  EC50: 8.6 nM
[6]; [17]
  EC50: 8.6 nM
[7]
  EC50: 44.7 nM
[8]
  EC50: 79.6 nM
[9]
  EC50: 8.1 nM
[10]
  EC50: 64.8 nM

## CS(=O)(=O)N(Cc1cnc(Br)s1)c1cc2oc(-c3ccc(F)cc3)c(-c3ncc[nH]3)c2cc1C1CC1 [Example 67, N-[(2-bromo-1,3-thiazol-5-yl)methyl]-N-[5-cyclopropyl-2-(4-fluorophenyl)-3-(1H-imidazol-2-yl)-1-benzofuran-6-yl]methanesulfonamide]
[1]
  IC50: 3.5 nM
[2]
  IC50: 234 nM
[3]
  C316Y/1a Fold Resistance: 68 fold
[4]
  IC50: 12 nM
[5]; [11]
  EC50: 54.3 nM
[5]; [12]
  EC50: 1010 nM
[5]; [13]
  EC50: 54.3 nM
[5]; [14]
  EC50: 54.3 nM
[6]; [15]
  EC50: 256 nM
[6]; [16]
  EC50: 13.9 nM
[6]; [17]
  EC50: 13.9 nM
[7]
  EC50: 87.3 nM
[8]
  EC50: 77.2 nM
[9]
  EC50: 7.9 nM
[10]
  EC50: 232 nM

## COCCCN(c1cc2oc(-c3ccc(F)cc3)c(-c3ncc[nH]3)c2cc1C1CC1)S(C)(=O)=O [Example 69, N-[5-cyclopropyl-2-(4-fluorophenyl)-3-(1H-imidazol-2-yl)-1-benzofuran-6-yl]-N-(3-methoxypropyl)methanesulfonamide]
[1]
  IC50: 6.5 nM
[2]
  IC50: 205 nM
[3]
  C316Y/1a Fold Resistance: 32 fold
[4]
  IC50: 29 nM
[5]; [11]
  EC50: 13.9 nM
[5]; [12]
  EC50: 259 nM
[5]; [13]
  EC50: 13.9 nM
[5]; [14]
  EC50: 13.9 nM
[6]; [15]
  EC50: 59 nM
[6]; [16]
  EC50: 6.6 nM
[6]; [17]
  EC50: 6.6 nM
[7]
  EC50: 61.1 nM
[8]
  EC50: 67.2 nM
[9]
  EC50: 9.4 nM
[10]
  EC50: 82.8 nM
